Measured values published in PubChem BioAssay (NCI).
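How tested: cells in 96-well plates exposed to compound for 48 hours at five concentrations. Here, GI50 denotes the concentration required for 50% inhibition of growth. Definition used: TGI = concentration required for complete inhibition of growth.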

Columns and labels:
Assay in all cases: NCI anticancer screen, dose series, 48 h
[1] = test system: SNB-19 CNS
[2] = test system: HOP-92 NSCLC
[3] = test system: SF-268 CNS
[4] = test system: MDA-MB-231 breast
[5] = test system: NCI-H23 lung
[6] = test system: A498 renal
[7] = test system: SK-OV-3 ovarian
[8] = test system: K-562 leukemia
[9] = test system: OVCAR-5 ovarian
[10] = test system: UO-31 renal
[11] = test system: SN12C renal
[12] = test system: HS 578T breast
[13] = test system: EKVX NSCLC
[14] = test system: M14 melanoma
[15] = test system: CAKI-1 renal
[16] = test system: DU-145 prostate
[17] = test system: NCI/ADR-RES ovarian
[18] = test system: TK-10 renal
[19] = test system: HCC-2998 colon
[20] = test system: HCT-15 colon
[21] = test system: SW-620 colon
[22] = test system: SF-539 CNS
[23] = test system: SK-MEL-5 melanoma
[24] = test system: HT29 colon
[25] = test system: KM12 colon
[26] = test system: NCI-H460 lung
[27] = test system: SK-MEL-28 melanoma
[28] = test system: T-47D breast
[29] = test system: NCI-H226 lung
[30] = test system: SF-295 CNS
[31] = test system: ACHN renal
[32] = test system: MDA-MB-435
[33] = test system: OVCAR-3 ovarian
[34] = test system: OVCAR-8 ovarian
[35] = test system: COLO 205 colon
[36] = test system: SK-MEL-2 melanoma
[37] = test system: UACC-62 melanoma
[38] = test system: HCT-116 colon
[39] = test system: 786-0 renal
[40] = test system: RXF 393 renal
[41] = test system: PC-3 prostate
[42] = test system: CCRF-CEM leukemia
[43] = test system: A549 NSCLC
[44] = test system: U251 CNS
[45] = test system: HL-60(TB) leukemia
[46] = test system: MDA-MB-468 breast
[47] = test system: UACC-257 melanoma
[48] = test system: NCI-H522 lung
[49] = test system: OVCAR-4 ovarian
[50] = test system: MOLT-4 leukemia
[51] = test system: IGROV1 ovarian
[52] = test system: RPMI-8226 leukemia
[53] = test system: MCF7 breast
[54] = test system: MALME-3M melanoma
[55] = test system: BT-549 breast
[56] = test system: LOX IMVI melanoma
[57] = test system: HOP-62 NSCLC

Q: For `Clc1cccc(N/N=C/c2c[nH]c3ccc(Br)cc23)n1`, which GI50 [1] is on record?
A: 10.2 µM

Q: What about the TGI [1] of the same compound?
A: 21.8 µM

Q: And the GI50 [2]?
A: 1.55 µM

Q: And the TGI [2]?
A: 8.21 µM

Q: And the GI50 [3]?
A: 1.85 µM

Q: What about the TGI [3] of the same compound?
A: 15.3 µM

Q: And the GI50 [4]?
A: 1.47 µM

Q: What about the TGI [4] of the same compound?
A: 8.95 µM

Q: And the GI50 [5]?
A: 10.2 µM

Q: And the TGI [5]?
A: 23.4 µM

Q: What about the GI50 [6] of the same compound?
A: 17 µM

Q: And the TGI [6]?
A: 32.2 µM

Q: And the GI50 [7]?
A: 2.04 µM

Q: What about the TGI [7] of the same compound?
A: 16 µM

Q: And the GI50 [8]?
A: 2 µM

Q: And the TGI [8]?
A: 29.6 µM

Q: What about the GI50 [9] of the same compound?
A: 10.2 µM

Q: What about the TGI [9] of the same compound?
A: 22.1 µM

Q: What about the GI50 [10] of the same compound?
A: 0.391 µM

Q: What about the TGI [10] of the same compound?
A: 14.8 µM

Q: And the GI50 [11]?
A: 0.695 µM

Q: And the TGI [11]?
A: 13 µM

Q: And the GI50 [12]?
A: 2.94 µM

Q: What about the TGI [12] of the same compound?
A: 27.1 µM

Q: And the GI50 [13]?
A: 1.6 µM

Q: And the TGI [13]?
A: 14.6 µM

Q: And the GI50 [14]?
A: 4 µM

Q: And the TGI [14]?
A: 17.9 µM

Q: And the GI50 [15]?
A: 1.29 µM

Q: What about the TGI [15] of the same compound?
A: 12.2 µM

Q: And the GI50 [16]?
A: 8.12 µM

Q: And the TGI [16]?
A: 21 µM

Q: And the GI50 [17]?
A: 3.08 µM

Q: And the TGI [17]?
A: 17.6 µM

Q: What about the GI50 [18] of the same compound?
A: 14 µM

Q: What about the TGI [18] of the same compound?
A: 27.2 µM

Q: What about the GI50 [19] of the same compound?
A: 4.07 µM

Q: And the TGI [19]?
A: 14.3 µM

Q: And the GI50 [20]?
A: 3.87 µM

Q: And the TGI [20]?
A: 15.3 µM

Q: And the GI50 [21]?
A: 3.22 µM

Q: What about the TGI [21] of the same compound?
A: 15.5 µM

Q: What about the GI50 [22] of the same compound?
A: 1.6 µM

Q: What about the TGI [22] of the same compound?
A: 15 µM

Q: What about the GI50 [23] of the same compound?
A: 10.3 µM

Q: What about the TGI [23] of the same compound?
A: 22 µM

Q: What about the GI50 [24] of the same compound?
A: 10.8 µM

Q: What about the TGI [24] of the same compound?
A: 24 µM

Q: What about the GI50 [25] of the same compound?
A: 2.69 µM

Q: And the TGI [25]?
A: 9.62 µM

Q: And the GI50 [26]?
A: 3.52 µM

Q: What about the TGI [26] of the same compound?
A: 15.2 µM

Q: And the GI50 [27]?
A: 14.2 µM

Q: What about the TGI [27] of the same compound?
A: 27.3 µM

Q: What about the GI50 [28] of the same compound?
A: 3.38 µM

Q: And the TGI [28]?
A: 20.3 µM

Q: What about the GI50 [29] of the same compound?
A: 0.416 µM

Q: What about the TGI [29] of the same compound?
A: 18 µM

Q: And the GI50 [30]?
A: 7.12 µM

Q: And the TGI [30]?
A: 20.4 µM

Q: And the GI50 [31]?
A: 6.73 µM

Q: And the TGI [31]?
A: 20.1 µM

Q: What about the GI50 [32] of the same compound?
A: 2.6 µM

Q: And the TGI [32]?
A: 11.6 µM

Q: What about the GI50 [33] of the same compound?
A: 2.11 µM

Q: What about the TGI [33] of the same compound?
A: 11.1 µM

Q: And the GI50 [34]?
A: 5.91 µM

Q: And the TGI [34]?
A: 26 µM

Q: What about the GI50 [35] of the same compound?
A: 11.8 µM

Q: And the TGI [35]?
A: 24.2 µM

Q: And the GI50 [36]?
A: 4.85 µM

Q: What about the TGI [36] of the same compound?
A: 19.5 µM

Q: And the GI50 [37]?
A: 0.718 µM

Q: And the TGI [37]?
A: 18.1 µM

Q: And the GI50 [38]?
A: 4.36 µM

Q: And the TGI [38]?
A: 18 µM

Q: And the GI50 [39]?
A: 6.61 µM

Q: And the TGI [39]?
A: 20.3 µM

Q: And the GI50 [40]?
A: 1.23 µM

Q: What about the TGI [40] of the same compound?
A: 8.11 µM

Q: And the GI50 [41]?
A: 1.25 µM

Q: What about the TGI [41] of the same compound?
A: 14 µM

Q: And the GI50 [42]?
A: 0.231 µM

Q: What about the TGI [42] of the same compound?
A: 16 µM

Q: And the GI50 [43]?
A: 11.7 µM

Q: What about the TGI [43] of the same compound?
A: 26.3 µM

Q: And the GI50 [44]?
A: 8.5 µM

Q: And the TGI [44]?
A: 23.6 µM

Q: What about the GI50 [45] of the same compound?
A: 2.7 µM

Q: And the TGI [45]?
A: 23.9 µM

Q: What about the GI50 [46] of the same compound?
A: 4.42 µM

Q: What about the TGI [46] of the same compound?
A: 16.6 µM

Q: And the GI50 [47]?
A: 12 µM

Q: And the TGI [47]?
A: 25.2 µM

Q: And the GI50 [48]?
A: 1.01 µM

Q: What about the TGI [48] of the same compound?
A: 11.9 µM

Q: What about the GI50 [49] of the same compound?
A: 6.12 µM

Q: And the TGI [49]?
A: 23.9 µM

Q: And the GI50 [50]?
A: 0.416 µM

Q: And the TGI [50]?
A: 11.5 µM

Q: And the GI50 [51]?
A: 0.349 µM

Q: What about the TGI [51] of the same compound?
A: 2.59 µM

Q: And the GI50 [52]?
A: 2.2 µM

Q: What about the TGI [52] of the same compound?
A: 20.4 µM

Q: And the GI50 [53]?
A: 3.74 µM

Q: What about the TGI [53] of the same compound?
A: 17 µM

Q: And the GI50 [54]?
A: 11.6 µM

Q: What about the TGI [54] of the same compound?
A: 24.5 µM

Q: What about the GI50 [55] of the same compound?
A: 0.296 µM

Q: What about the TGI [55] of the same compound?
A: 12.3 µM

Q: And the GI50 [56]?
A: 1.22 µM

Q: What about the TGI [56] of the same compound?
A: 11 µM

Q: And the GI50 [57]?
A: 4.28 µM

Q: What about the TGI [57] of the same compound?
A: 18.8 µM
